Data from ChEMBL document CHEMBL1177829, “A novel organogermanium protected atopic dermatitis induced by oxazolone” (2010).
Activity calls are given as the source filed them. The rule behind the calls is not given here.

Experiments:
Mus musculus [1] = test: Antiinflammatory activity against oxazolone-induced atopic dermatitis in nude mouse assessed as decrease in transepidermal water loss at 0.01 % administered topically bid simultaneously with oxazolone qd for 10 days following 5 days post-oxazolone challenge relative to control; assay type: functional; design: scale not given: the % may be the effect or the level left
Mus musculus [2] = test: Antiinflammatory activity against oxazolone-induced atopic dermatitis in nude mouse assessed as decrease in transepidermal water loss at 0.3 % administered topically bid simultaneously with oxazolone qd for 10 days following 5 days post-oxazolone challenge relative to control; assay type: functional, organism-based; design: scale not given: the % may be the effect or the level left
Mus musculus [3] = test: Antiinflammatory activity against oxazolone-induced atopic dermatitis in nude mouse assessed as infiltration of lymphocytes in dermis at 1.8 % administered topically bid simultaneously with oxazolone qd for 10 days following 5 days post-oxazolone challenge relative to control; assay type: functional, organism-based
Mus musculus [4] = test: Antiinflammatory activity against oxazolone-induced atopic dermatitis in nude mouse assessed as decrease in skin thickness at 0.3 to 1.8 % administered topically bid simultaneously with oxazolone qd for 10 days following 5 days post-oxazolone challenge relative to control; assay type: functional, organism-based
Mus musculus [5] = test: Antiinflammatory activity against oxazolone-induced atopic dermatitis in nude mouse assessed as alleviation of parkeratotic scales at 1.8 % administered topically bid simultaneously with oxazolone qd for 10 days following 5 days post-oxazolone challenge relative to control; assay type: functional, organism-based
Mus musculus [6] = test: Antiinflammatory activity against oxazolone-induced atopic dermatitis in nude mouse assessed as reduction in IgE level at 0.3 to 1.8 % administered topically bid simultaneously with oxazolone qd for 10 days following 5 days post-oxazolone challenge relative to control; assay type: functional, organism-based
Mus musculus [7] = test: Antiinflammatory activity against oxazolone-induced atopic dermatitis in nude mouse assessed as decrease in transepidermal water loss at 1.8 % administered topically bid simultaneously with oxazolone qd for 10 days following 5 days post-oxazolone challenge relative to control; assay type: functional, organism-based; design: scale not given: the % may be the effect or the level left
Mus musculus [8] = test: Antiinflammatory activity against oxazolone-induced atopic dermatitis in nude mouse assessed as decrease in skin thickness at 0.01 % administered topically bid simultaneously with oxazolone qd for 10 days following 5 days post-oxazolone challenge relative to control; assay type: functional, organism-based

| Compound | Activity (Mus musculus [1]) [%] | Activity (Mus musculus [2]) [%] | Activity (Mus musculus [3]) | Activity (Mus musculus [4]) | Activity (Mus musculus [5]) | Activity (Mus musculus [6]) | Activity (Mus musculus [7]) [%] | Activity (Mus musculus [8]) |
| --- | --- | --- | --- | --- | --- | --- | --- | --- |
| C[C@H]1C[C@H]2[C@@H]3CCC4=CC(=O)C=C[C@]4(C)[C@@]3(F)[C@@H](O)C[C@]2(C)[C@@]1(O)C(=O)CO [BETAMETHASONE] | 57 | – | – | – | – | – | – | – |
| N-((2S)-2-(3,4-dihydroxy-5-oxo-2,5-dihydrofuran-2-yl)-2-hydroxyethyl)-3-(trimethylgermyl)propanamide | – | 6 | Active | Active | Active | Active | 39 | Active |
